Laboratory results: patent US20050119337A1, “Methods of application of Schisandrin B in the preparation of anticancer medications” (priority 2003, published 2005)
Where two headings read alike, the source gives them in different places.

What was measured:
Assay type in all cases: cell-based
[1] = test system: human epidermoid carcinoma MDR cell line KBV200; experiment: Reversal of drug resistance of KBV200, MTT assay, 72 h; settings: for IC50: Homo sapiens, read-out: IC50 Control; for RF (Schisandrin B): IC50 in the absence / IC50 in the presence of Schisandrin B (10 μg/ml); for RF (Schisandrin B) / RF (verapamil) / IC50 Schisandrin B / IC50 verapamil: KBV200; for RF (verapamil): IC50 in the absence / IC50 in the presence of verapamil (6 μg/ml); for IC50 Schisandrin B: anticancer drug in the presence of Schisandrin B (10 μg/ml); for IC50 verapamil: anticancer drug in the presence of verapamil (6 μg/ml)
Experimental: (§1) In this embodiment, the IC50 of anticancer drugs in the presence or absence of Schisandrin B toward MDR cells was determined.
(§2) MTT assays were carried out in triplicate against human leukemia MDR cell line K562/adr and human epidermoid carcinoma MDR cell line KBV200. MTT assays as described previously (X. Hu, et al., Chemotherapy 41:296-305 (1995)) were used to determine the cytotoxicity of each anticancer drug in the presence or absence of Schisandrin B or verapmil.
Cells were treated with specific anticancer drugs as set forth therein. […] “SchB” represents cells treated with anticancer drugs in the presence of Schisandrin B (10 μg/ml).

[2] = test system: human leukemia MDR cell line K562/adr; experiment: Reversal of drug resistance of K562/adr, MTT assay, 72 h; settings: for IC50: Homo sapiens, read-out: IC50 Control; for RF (Schisandrin B): IC50 in the absence divided by IC50 in the presence of Schisandrin B (10 μg/ml); for RF (verapamil): IC50 in the absence divided by IC50 in the presence of verapamil (6 μg/ml); for IC50 Schisandrin B: anticancer drug in the presence of Schisandrin B (10 μg/ml); for IC50 verapamil: anticancer drug in the presence of verapamil (6 μg/ml)
Experimental: as §1, §2
Cells were treated with specific anticancer drugs as set forth therein. “Ctrl” represents control cells treated with anticancer drugs in the absence of Schisandrin B or verapamil. “SchB” represents cells treated with anticancer drugs in the presence of Schisandrin B (10 μg/ml).

K562/vcr = experiment: Reversal of drug resistance, MTT assay, 48 h; settings: for IC50: Homo sapiens, read-out: IC50 Control; for IC50 / IC50 Schisandrin B: 48 h; for RF (Reversal Folds): IC50 in the absence of Schisandrin B divided by IC50 in the presence of Schisandrin B (10 μg/ml); for IC50 Schisandrin B: anticancer drug toward K562/vcr in the presence of Schisandrin B (10 μg/ml)
Experimental: To illustrate a method for reversal of drug resistance by application of Schisandrin B, cell lines K562/adr, K562/vcr (X. […] H. […] Cells were cultured in RPMI-1640 medium containing 10% fetal calf serum. […] The logarithmic growing cells were seeded into a 96 well plate (20,000 cells/well). Specific anticancer drugs (set forth in Table 1) and Schisandrin B in combination were added into the wells containing the select cell lines. […] Cell viability was assessed by MTT assays as described in X.

[3] = anticancer drug alone, KBV200, 72 h
[4] = anticancer drug alone, K562/adr, 72 h
[5] = anticancer drug toward K562/vcr in the absence of Schisandrin B

Structure (SMILES) | IC50 ([1]; KBv200, 72 h) [µg/mL] | RF (Schisandrin B) [1] | RF (verapamil) [1] | IC50 Schisandrin B [1] [µg/mL] | IC50 verapamil [1] [µg/mL] | IC50 ([2]; K562/Adr, 72 h) [µg/mL] | RF (Schisandrin B) ([2]; K562/adr) | RF (verapamil) ([2]; K562/adr) | IC50 Schisandrin B ([2]; K562/adr) [µg/mL] | IC50 verapamil ([2]; K562/adr) [µg/mL] | IC50 (K562/vcr; K562/VCR) [µg/mL] | RF (Reversal Folds) (K562/vcr) | IC50 Schisandrin B (K562/vcr) [µg/mL] | IC50 [1, 3] [µg/mL] | IC50 [2, 4] [µg/mL] | IC50 (K562/vcr; [5]) [µg/mL] | IC50 Control [1, 3] [µg/mL] | IC50 Control [2, 4] [µg/mL]
COc1cccc2c1C(=O)c1c(O)c3c(c(O)c1C2=O)C[C@@](O)(C(C)=O)C[C@@H]3O[C@H]1C[C@H](N)[C@H](O)[C@H](C)O1 [Daunorubicin, daunorubicin] | 0.305 ± 0.0728 | 3.34 | 5.49 | 0.0913 ± 0.003 | 0.0555 ± 0.0175 | 0.505 ± 0.0728 | 5.16 | 6.38 | 0.0977 ± 0.063 | 0.0791 ± 0.0313 | 0.45 ± 0.25 | 40.9 | 0.011 ± 0.0001 |  |  |  |  | 
COc1cccc2c1C(=O)c1c(O)c3c(c(O)c1C2=O)C[C@@](O)(C(=O)CO)C[C@@H]3O[C@H]1C[C@H](N)[C@@H](O)[C@H](C)O1 [Epirubicin, epirubicin] |  | 9.56 | 8.06 | 0.1033 ± 0.0545 | 0.1226 ± 0.082 |  | 4.35 | 5.95 | 0.3033 ± 0.0812 | 0.2218 ± 0.0909 |  | 5.81 | 0.44 ± 0.14 | 0.988 ± 0.152 | 1.32 ± 0.322 | 2.56 ± 0.84 |  | 
COC(=O)C[C@](O)(CCCC(C)(C)O)C(=O)O[C@@H]1C(OC)=C[C@]23CCCN2CCc2cc4c(cc2[C@H]13)OCO4 [Homoharringtonine] |  | 4.94 | 4.74 | 0.1064 ± 0.0812 | 0.1108 ± 0.0076 |  | 4.44 | 6.1 | 0.0964 ± 0.0312 | 0.0701 ± 0.0042 |  | 11 | 0.050 ± 0.01 | 0.526 ± 0.199 | 0.428 ± 0.108 | 0.55 ± 0.02 |  | 
CC[C@@]1(O)C(=O)OCc2c1cc1n(c2=O)Cc2cc3cc(O)ccc3nc2-1 [Hydroxycamptothecine] |  | 3.07 | 3.48 | 0.0527 ± 0.0613 | 0.0468 ± 0.0254 |  | 8.84 | 8.53 | 0.0417 ± 0.062 | 0.0432 ± 0.0205 |  |  |  |  |  |  | 0.1618 ± 0.1501 | 0.3688 ± 0.0875
CN(Cc1cnc2nc(N)nc(N)c2n1)c1ccc(C(=O)N[C@@H](CCC(=O)O)C(=O)O)cc1 [Methotrexate, methotrexate] |  |  |  |  |  |  |  |  |  |  |  |  | >10 |  |  | > 10 |  | 
O=C1c2c(O)ccc(O)c2C(=O)c2c(NCCNCCO)ccc(NCCNCCO)c21 [Mitoxantron, mitoxantron] |  | >9.06 | >9.06 | <0.01 | <0.01 |  | >10.52 | >10.52 | <0.01 | <0.01 |  | 4.0 | 0.20 ± 0.06 | 0.0906 ± 0.0456 | 0.105 ± 0.0356 | 0.79 ± 0.33 |  | 
CC(=O)O[C@H]1C(=O)[C@@]2(C)[C@H]([C@H](OC(=O)c3ccccc3)[C@]3(O)C[C@H](OC(=O)[C@H](O)[C@@H](NC(=O)c4ccccc4)c4ccccc4)C(C)=C1C3(C)C)[C@]1(OC(C)=O)CO[C@@H]1C[C@@H]2O [Taxol, taxol] |  | 2.82 | 2.71 | 0.0316 ± 0.0019 | 0.0329 ± 0.0079 |  | 17.89 | 23.94 | 0.01913 ± 0.0208 | 0.0143 ± 0.0093 |  |  |  | 0.089 ± 0.0079 | 0.342 ± 0.132 |  |  | 
CC[C@]1(O)C[C@H]2CN(CCc3c([nH]c4ccccc34)[C@@](C(=O)OC)(c3cc4c(cc3OC)N(C=O)[C@H]3[C@@](O)(C(=O)OC)[C@H](OC(C)=O)[C@]5(CC)C=CCN6CC[C@]43[C@@H]65)C2)C1 [Vincristine, vincristine] |  | 127.2 | 20.26 | 0.1572 ± 0.0946 | 0.9872 ± 0.01555 |  | 6.2 | 10.51 | 0.1486 ± 0.0554 | 0.0872 ± 0.0236 |  | >14.9 | 1.34 ± 0.08 | > 20 | 0.916 ± 0.238 | > 20 |  | 
